Reference: the NIST ThermoML archive (doi:10.1021/je049609w)

What was measured:
[1] = refractive index (Na D-line) (dimensionless); xn = mol fraction of the nth substance listed; conditions: 101 kPa, Liquid
[2] = xn = mol fraction of the nth substance listed; conditions: 101 kPa, Liquid

C1COCCO1 [1,4-dioxane] + CCOC(C)=O
Conditions	mass density, 298.15 K [kg/m3]	mass density, 303.15 K [kg/m3]	mass density, 308.15 K [kg/m3]	refractive index, 298.15 K	refractive index, 303.15 K	refractive index, 308.15 K	speed of sound, 298.15 K [m/s]	viscosity, 298.15 K [mPa·s]	viscosity, 303.15 K [mPa·s]	viscosity, 308.15 K [mPa·s]
[1], x1 = 0.1004	–	–	–	1.3753	1.3716	1.368	–	–	–	–
[1], x1 = 0.2001	–	–	–	1.3798	1.3764	1.373	–	–	–	–
[1], x1 = 0.3021	–	–	–	1.3843	1.3813	1.3782	–	–	–	–
[1], x1 = 0.4002	–	–	–	1.389	1.3862	1.3834	–	–	–	–
[1], x1 = 0.5071	–	–	–	1.3942	1.3915	1.3889	–	–	–	–
[1], x1 = 0.6001	–	–	–	1.3991	1.3964	1.3938	–	–	–	–
[1], x1 = 0.6972	–	–	–	1.4041	1.4015	1.3989	–	–	–	–
[1], x1 = 0.799	–	–	–	1.4094	1.4069	1.4044	–	–	–	–
[1], x1 = 0.8991	–	–	–	1.4148	1.4122	1.4097	–	–	–	–
[1], x1 = 1	–	–	–	1.4203	1.4164	1.4145	–	–	–	–
[2], x1 = 0.1004	906.2	900	893.9	–	–	–	1174	0.467	0.442	0.417
[2], x1 = 0.2001	918.8	912.7	906.6	–	–	–	1193	0.505	0.478	0.45
[2], x1 = 0.3021	931.9	925.8	919.8	–	–	–	1212	0.543	0.513	0.482
[2], x1 = 0.4002	944.7	938.7	932.7	–	–	–	1231	0.595	0.56	0.525
[2], x1 = 0.5071	958.7	952.8	946.9	–	–	–	1250	0.646	0.607	0.568
[2], x1 = 0.6001	971.1	965.2	959.5	–	–	–	1269	0.707	0.671	0.616
[2], x1 = 0.6972	984.4	978.6	972.8	–	–	–	1288	0.791	0.735	0.684
[2], x1 = 0.799	998.7	993	987.2	–	–	–	1307	0.908	0.843	0.778
[2], x1 = 0.8991	1013.3	1007.7	1001.9	–	–	–	1327	1.029	0.951	0.873
[2], x1 = 1	1028.6	1022.9	1017.2	–	–	–	1345	1.195	1.095	1.008

C1COCCO1 [1,4-dioxane] + ClC=C(Cl)Cl
x1 = 1
Conditions	mass density, 298.15 K [kg/m3]	mass density, 303.15 K [kg/m3]	mass density, 308.15 K [kg/m3]	refractive index, 298.15 K	refractive index, 303.15 K	refractive index, 308.15 K	speed of sound, 298.15 K [m/s]	viscosity, 298.15 K [mPa·s]	viscosity, 303.15 K [mPa·s]	viscosity, 308.15 K [mPa·s]
[1]	–	–	–	1.4203	1.4164	1.4145	–	–	–	–
[2]	1028.6	1022.9	1017.2	–	–	–	1345	1.196	1.102	1.008

C1COCCO1 [1,4-dioxane] + Clc1ccccc1Cl
x1 = 1
Conditions	mass density, 298.15 K [kg/m3]	mass density, 303.15 K [kg/m3]	mass density, 308.15 K [kg/m3]	refractive index, 298.15 K	refractive index, 303.15 K	refractive index, 308.15 K	speed of sound, 298.15 K [m/s]	viscosity, 298.15 K [mPa·s]	viscosity, 303.15 K [mPa·s]	viscosity, 308.15 K [mPa·s]
[1]	–	–	–	1.4203	1.4164	1.4145	–	–	–	–
[2]	1028.6	1022.9	1017.2	–	–	–	1345	1.196	1.102	1.008

C1COCCO1 [1,4-dioxane] + OCCCl
x1 = 1
Conditions	mass density, 298.15 K [kg/m3]	mass density, 303.15 K [kg/m3]	mass density, 308.15 K [kg/m3]	refractive index, 298.15 K	refractive index, 303.15 K	refractive index, 308.15 K	speed of sound, 298.15 K [m/s]	viscosity, 298.15 K [mPa·s]	viscosity, 303.15 K [mPa·s]	viscosity, 308.15 K [mPa·s]
[1]	–	–	–	1.4203	1.4164	1.4145	–	–	–	–
[2]	1028.6	1022.9	1017.2	–	–	–	1345	1.196	1.095	1.008

OCCCl [1-chloro-2-hydroxyethane] + C1COCCO1
Conditions	mass density, 298.15 K [kg/m3]	mass density, 303.15 K [kg/m3]	mass density, 308.15 K [kg/m3]	refractive index, 298.15 K	refractive index, 303.15 K	refractive index, 308.15 K	speed of sound, 298.15 K [m/s]	viscosity, 298.15 K [mPa·s]	viscosity, 303.15 K [mPa·s]	viscosity, 308.15 K [mPa·s]
[1], x2 = 0	–	–	–	1.4411	1.438	1.4326	–	–	–	–
[1], x2 = 0.1024	–	–	–	1.4389	1.4356	1.4324	–	–	–	–
[1], x2 = 0.2001	–	–	–	1.4363	1.4337	1.431	–	–	–	–
[1], x2 = 0.3035	–	–	–	1.4337	1.4314	1.4292	–	–	–	–
[1], x2 = 0.4041	–	–	–	1.4314	1.4291	1.4268	–	–	–	–
[1], x2 = 0.5047	–	–	–	1.429	1.4269	1.4247	–	–	–	–
[1], x2 = 0.6031	–	–	–	1.4273	1.4249	1.4225	–	–	–	–
[1], x2 = 0.7015	–	–	–	1.4256	1.4231	1.4205	–	–	–	–
[1], x2 = 0.8009	–	–	–	1.4235	1.4211	1.4187	–	–	–	–
[1], x2 = 0.9003	–	–	–	1.4214	1.4191	1.4168	–	–	–	–
[2], x2 = 0	1200.9	1192.5	1187.1	–	–	–	1358	3.104	2.669	2.347
[2], x2 = 0.1024	1177.7	1171.1	1165.1	–	–	–	1357	2.755	2.457	2.16
[2], x2 = 0.2001	1157	1151.1	1145.2	–	–	–	1356	2.431	2.17	1.909
[2], x2 = 0.3035	1136.7	1131.1	1125.5	–	–	–	1354	2.088	1.877	1.666
[2], x2 = 0.4041	1118.2	1112.7	1107.2	–	–	–	1353	1.858	1.682	1.505
[2], x2 = 0.5047	1100.8	1095.4	1090	–	–	–	1352	1.649	1.496	1.344
[2], x2 = 0.6031	1084.8	1079.4	1073.9	–	–	–	1350	1.505	1.376	1.248
[2], x2 = 0.7015	1069.5	1064.1	1058.7	–	–	–	1349	1.377	1.265	1.152
[2], x2 = 0.8009	1054.9	1049.5	1044.1	–	–	–	1347	1.304	1.199	1.095
[2], x2 = 0.9003	1041.6	1030.9	1030.2	–	–	–	1346	1.233	1.136	1.038

CC(=O)N(C)C [N,N-dimethylethanamide] + C1COCCO1
Conditions	mass density, 298.15 K [kg/m3]	mass density, 303.15 K [kg/m3]	mass density, 308.15 K [kg/m3]	refractive index, 298.15 K	refractive index, 303.15 K	refractive index, 308.15 K	speed of sound, 298.15 K [m/s]	viscosity, 298.15 K [mPa·s]	viscosity, 303.15 K [mPa·s]	viscosity, 308.15 K [mPa·s]
[1], x2 = 0	–	–	–	1.4363	1.4342	1.432	–	–	–	–
[1], x2 = 0.1121	–	–	–	1.4346	1.4324	1.4302	–	–	–	–
[1], x2 = 0.2162	–	–	–	1.4328	1.4306	1.4284	–	–	–	–
[1], x2 = 0.3203	–	–	–	1.431	1.4287	1.4264	–	–	–	–
[1], x2 = 0.4222	–	–	–	1.4293	1.4269	1.4246	–	–	–	–
[1], x2 = 0.5242	–	–	–	1.4275	1.4252	1.4228	–	–	–	–
[1], x2 = 0.6219	–	–	–	1.4259	1.4234	1.421	–	–	–	–
[1], x2 = 0.7198	–	–	–	1.4242	1.4226	1.4191	–	–	–	–
[1], x2 = 0.8157	–	–	–	1.4226	1.421	1.4174	–	–	–	–
[1], x2 = 0.9116	–	–	–	1.421	1.4195	1.4157	–	–	–	–
[2], x2 = 0	946.8	942.1	937.5	–	–	–	1458	1.261	1.154	1.047
[2], x2 = 0.1121	954.8	950.1	945.4	–	–	–	1447	1.255	1.149	1.043
[2], x2 = 0.2162	962.4	957.6	952.9	–	–	–	1436	1.248	1.144	1.039
[2], x2 = 0.3203	970	965.2	960.3	–	–	–	1424	1.242	1.138	1.035
[2], x2 = 0.4222	977.9	972.9	968	–	–	–	1413	1.235	1.133	1.031
[2], x2 = 0.5242	985.9	980.9	975.9	–	–	–	1401	1.228	1.128	1.027
[2], x2 = 0.6219	993.9	988.8	983.6	–	–	–	1390	1.222	1.123	1.023
[2], x2 = 0.7198	1002.1	996.8	991.6	–	–	–	1379	1.215	1.117	1.019
[2], x2 = 0.8157	1010.5	1005.3	999.8	–	–	–	1367	1.209	1.105	1.016
[2], x2 = 0.9116	1019.2	1013.7	1008.2	–	–	–	1356	1.202	1.099	1.012

CCCCO [butan-1-ol] + C1COCCO1
x2 = 0
Conditions	mass density, 298.15 K [kg/m3]	mass density, 303.15 K [kg/m3]	mass density, 308.15 K [kg/m3]	refractive index, 298.15 K	refractive index, 303.15 K	refractive index, 308.15 K	speed of sound, 298.15 K [m/s]	viscosity, 298.15 K [mPa·s]	viscosity, 303.15 K [mPa·s]	viscosity, 308.15 K [mPa·s]
[1]	–	–	–	1.3983	1.3955	1.3937	–	–	–	–
[2]	805.8	802	798	–	–	–	1237	2.564	2.245	1.981
